Values joined by “and” are separate entries in the source; they are usually repeats but may differ in a detail not shown here. Identical values can stand only once. Toxic doses and inconclusive results are not listed.
Tested on: P388 leukemia ip, CD2F1 mice, survival T/C
Experiment: NCI In Vivo Anticancer Drug Screen. Data for tumor model P388 Leukemia (intraperitoneal) in CD2F1 (CDF1) mice
Details: endpoint: median survival time, higher = longer survival
Procedure, shortened: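 Mice carrying the transplanted tumor received test compound or vehicle. Survival was recorded in each group, and the value is the treated-group measurement divided by that of the vehicle-treated control group.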

[1] = dose: 100.0 mg/kg/injection, schedule: Q01DX001 (ip), vehicle: saline with Tween-80
[2] = dose: 50.0 mg/kg/injection, schedule: Q01DX009 (ip), vehicle: saline
[3] = dose: 100.0 mg/kg/injection, schedule: Q01DX009 (ip), vehicle: saline
[4] = dose: 200.0 mg/kg/injection, schedule: Q01DX009 (ip), vehicle: saline
[5] = dose: 100.0 mg/kg/injection, schedule: Q04DX003 (ip), vehicle: saline with Tween-80
[6] = dose: 200.0 mg/kg/injection, schedule: Q04DX003 (ip), vehicle: saline with Tween-80
[7] = dose: 50.0 mg/kg/injection, schedule: Q01DX009 (ip), vehicle: saline with Tween-80
[8] = dose: 100.0 mg/kg/injection, schedule: Q01DX009 (ip), vehicle: saline with Tween-80

SMILES: CC12CCC(O)CC1CCC1C2C(O)CC2(C)C1CCC2(C)O (stereo unspecified)
- T/C (dose: 100.0 mg/kg/injection, schedule: Q04DX003 (ip), vehicle: alcohol): 105 % of control
- T/C (dose: 200.0 mg/kg/injection, schedule: Q04DX003 (ip), vehicle: alcohol): 90 % of control
- T/C (dose: 400.0 mg/kg/injection, schedule: Q04DX003 (ip), vehicle: alcohol): 115 % of control

SMILES: ClC1=CC=c2ccc3c(c2[N-]1)[N-]C(Cl)=CC=3.ClC1=CC=c2ccc3c(c2[N-]1)[N-]C(Cl)=CC=3.O=[N+]([O-])O.[Cu+]
- T/C (dose: 6.25 mg/kg/injection, schedule: Q04DX002 (ip), vehicle: suspension in saline): 101 % of control
- T/C (dose: 12.5 mg/kg/injection, schedule: Q04DX002 (ip), vehicle: suspension in saline): 93 % of control
- T/C (dose: 25.0 mg/kg/injection, schedule: Q04DX002 (ip), vehicle: suspension in saline): 98 % of control

SMILES: CCOc1c(Cc2ccccc2)c(=O)nc2c(-c3ccccc3)cncn12
- T/C (dose: 30.0 mg/kg/injection, schedule: Q01DX005 (ip), vehicle: saline with Tween-80): 101 % of control
- T/C (dose: 60.0 mg/kg/injection, schedule: Q01DX005 (ip), vehicle: saline with Tween-80): 86 % of control and 90 % of control
- T/C (dose: 120.0 mg/kg/injection, schedule: Q01DX005 (ip), vehicle: saline with Tween-80): 92 % of control
- T/C (dose: 240.0 mg/kg/injection, schedule: Q01DX005 (ip), vehicle: saline with Tween-80): 87 % of control

SMILES: Clc1ccccc1C=Nc1ccc(N=Cc2ccccc2Cl)cc1
- T/C (dose: 100.0 mg/kg/injection, schedule: Q04DX002 (ip), vehicle: saline with Tween-80): 97 % of control
- T/C (dose: 200.0 mg/kg/injection, schedule: Q04DX002 (ip), vehicle: saline with Tween-80): 91 % of control
- T/C (dose: 400.0 mg/kg/injection, schedule: Q04DX002 (ip), vehicle: saline with Tween-80): 92 % of control

SMILES: CC1OC(c2ccc3c(c2O)C(=O)C2=C(C3=O)[C@H]3OC(=O)C[C@H]3O[C@@H]2C)CC(N(C)C)C1O (stereo partly specified)
- T/C (dose: 1.5 mg/kg/injection, schedule: Q01DX005 (ip), vehicle: other): 91 % of control
- T/C (dose: 750.0 micrograms/kg/injection, schedule: Q01DX005 (ip), vehicle: other): 86 % of control
- T/C (dose: 1500.0 micrograms/kg/injection, schedule: Q01DX005 (ip), vehicle: other): 90 % of control
- T/C (dose: 3000.0 micrograms/kg/injection, schedule: Q01DX005 (ip), vehicle: other): 88 % of control

SMILES: CC(=O)Oc1cc2c3c(c1)CCCN3CCC2
- T/C (dose: 1.25 mg/kg/injection, schedule: Q04DX003 (ip), vehicle: saline with Tween-80): 91 % of control
- T/C (dose: 2.5 mg/kg/injection, schedule: Q04DX003 (ip), vehicle: saline with Tween-80): 104 % of control
- T/C (dose: 5.0 mg/kg/injection, schedule: Q04DX003 (ip), vehicle: saline with Tween-80): 100 % of control

SMILES: Cc1ccc(S(=O)(=O)NC(=O)NC(=S)c2ccco2)cc1
- T/C [1]: 101 % of control
- T/C (dose: 200.0 mg/kg/injection, schedule: Q01DX001 (ip), vehicle: saline with Tween-80): 97 % of control
- T/C (dose: 400.0 mg/kg/injection, schedule: Q01DX001 (ip), vehicle: saline with Tween-80): 102 % of control

SMILES: COC1OC2COC(c3ccc(Cl)cc3)OC2C2OC12 (stereo unspecified)
- T/C (dose: 7.5 mg/kg/injection, schedule: Q04DX002 (ip), vehicle: saline with Tween-80): 102 % of control
- T/C (dose: 15.0 mg/kg/injection, schedule: Q04DX002 (ip), vehicle: saline with Tween-80): 101 % of control
- T/C (dose: 30.0 mg/kg/injection, schedule: Q04DX002 (ip), vehicle: saline with Tween-80): 102 % of control

SMILES: O=C(c1ccccc1)C(CN1CCOCC1)CN1CCOCC1
- T/C [2]: 119 % of control
- T/C [3]: 116 % of control

SMILES: C[n+]1c2cc(N)ccc2cc2ccc(N)cc21
- T/C (dose: 3.12 mg/kg/injection, schedule: Q01DX005 (ip), vehicle: suspension in saline): 121 % of control
- T/C (dose: 6.25 mg/kg/injection, schedule: Q01DX005 (ip), vehicle: suspension in saline): 117 % of control
- T/C (dose: 6.25 mg/kg/injection, schedule: Q01DX009 (ip), vehicle: saline): 153 % of control
- T/C (dose: 12.5 mg/kg/injection, schedule: Q01DX009 (ip), vehicle: saline): 164 % of control

SMILES: Nc1cc([N+](=O)[O-])ccc1O
- T/C [3]: 102 % of control and 105 % of control
- T/C [4]: 101 % of control
- T/C (dose: 600.0 mg/kg/injection, schedule: Q01DX009 (ip), vehicle: saline): 91 % of control

SMILES: O=C1OC2(CCCCC2)OC(=O)C1=Cc1ccc([N+](=O)[O-])s1
- T/C [5]: 114 % of control
- T/C [6]: 105 % of control

SMILES: Cc1c(Cl)c(C)c(Cl)c(O)c1Cl
- T/C [5]: 104 % of control
- T/C [6]: 100 % of control
- T/C (dose: 400.0 mg/kg/injection, schedule: Q04DX003 (ip), vehicle: saline with Tween-80): 104 % of control

SMILES: c1ccc(CCn2c(-c3ccccn3)nc3ccccc32)nc1
- T/C (dose: 25.0 mg/kg/injection, schedule: Q01DX005 (ip), vehicle: Klucel (hydroxypropylcellulose) (HPC)): 105 % of control
- T/C (dose: 50.0 mg/kg/injection, schedule: Q01DX005 (ip), vehicle: Klucel (hydroxypropylcellulose) (HPC)): 99 % of control
- T/C (dose: 100.0 mg/kg/injection, schedule: Q01DX005 (ip), vehicle: Klucel (hydroxypropylcellulose) (HPC)): 99 % of control

SMILES: CC(=O)OC(=O)C(NC(=O)C(N)CC(C)C)C(C)C (stereo unspecified)
- T/C [2]: 103 % of control
- T/C [3]: 94 % of control
- T/C [4]: 100 % of control

SMILES: Nc1nc(Cl)c(C=O)c(Cl)n1
- T/C (dose: 12.5 mg/kg/injection, schedule: Q01DX009 (ip), vehicle: saline with Tween-80): 96 % of control
- T/C (dose: 25.0 mg/kg/injection, schedule: Q01DX009 (ip), vehicle: saline with Tween-80): 100 % of control and 119 % of control
- T/C [7]: 100 % of control and 120 % of control
- T/C [8]: 115 % of control

SMILES: CCN(CC)C1=C2/C=CC3=C2\C(=C/C=C\C=C/1C)CC3=O
- T/C (dose: 60.0 mg/kg/injection, schedule: Q01DX005 (ip), vehicle: Klucel (hydroxypropylcellulose) (HPC)): 95 % of control
- T/C (dose: 120.0 mg/kg/injection, schedule: Q01DX005 (ip), vehicle: Klucel (hydroxypropylcellulose) (HPC)): 98 % of control
- T/C (dose: 240.0 mg/kg/injection, schedule: Q01DX005 (ip), vehicle: Klucel (hydroxypropylcellulose) (HPC)): 96 % of control

SMILES: CC(C)C1=CC23CCC4C(C)(C(N)=O)CCCC4(C)C2CC1C1C(=O)OC(=O)C13 (stereo unspecified)
- T/C [1]: 91 % of control

SMILES: O=C(O)CC(NC(=O)OCc1ccccc1)C(=O)OCc1ccccc1 (stereo unspecified)
- T/C [7]: 100 % of control
- T/C [8]: 104 % of control
- T/C (dose: 200.0 mg/kg/injection, schedule: Q01DX009 (ip), vehicle: saline with Tween-80): 104 % of control

SMILES: Clc1cccc(Cl)c1C1CSc2ccccc2N=C1c1ccccc1 (stereo unspecified)
- T/C (dose: 50.0 mg/kg/injection, schedule: Q01DX009 (ip), vehicle: Klucel (hydroxypropylcellulose) (HPC)): 94 % of control
- T/C (dose: 100.0 mg/kg/injection, schedule: Q01DX009 (ip), vehicle: Klucel (hydroxypropylcellulose) (HPC)): 100 % of control
- T/C (dose: 200.0 mg/kg/injection, schedule: Q01DX009 (ip), vehicle: Klucel (hydroxypropylcellulose) (HPC)): 100 % of control

SMILES: CCN(CC)C(=O)C(C)C1=C(C)C(N(CC)CC)=NS(=O)(=O)c2ccccc21 (stereo unspecified)
- T/C (dose: 100.0 mg/kg/injection, schedule: Q04DX002 (ip), vehicle: Klucel (hydroxypropylcellulose) (HPC)): 102 % of control
- T/C (dose: 200.0 mg/kg/injection, schedule: Q04DX002 (ip), vehicle: Klucel (hydroxypropylcellulose) (HPC)): 90 % of control
- T/C (dose: 400.0 mg/kg/injection, schedule: Q04DX002 (ip), vehicle: Klucel (hydroxypropylcellulose) (HPC)): 109 % of control

SMILES: CCOC(CCl)(NC(C)=O)C(=O)OC (stereo unspecified)
- T/C (dose: 100.0 mg/kg/injection, schedule: Q01DX001 (ip), vehicle: Klucel (hydroxypropylcellulose) (HPC)): 104 % of control
- T/C (dose: 200.0 mg/kg/injection, schedule: Q01DX001 (ip), vehicle: Klucel (hydroxypropylcellulose) (HPC)): 100 % of control
- T/C (dose: 400.0 mg/kg/injection, schedule: Q01DX001 (ip), vehicle: Klucel (hydroxypropylcellulose) (HPC)): 106 % of control

SMILES: Clc1ncnc2ccccc12
- T/C (dose: 50.0 mg/kg/injection, schedule: Q01DX005 (ip), vehicle: saline with Tween-80): 105 % of control
- T/C (dose: 100.0 mg/kg/injection, schedule: Q01DX005 (ip), vehicle: saline with Tween-80): 89 % of control

SMILES: COc1cc2c(cc1OC)-c1cc(C)c3cc(OC)c(OC)cc3[n+]1CC2
- T/C (dose: 50.0 mg/kg/injection, schedule: Q01DX009 (ip), vehicle: water): 111 % of control
- T/C (dose: 100.0 mg/kg/injection, schedule: Q01DX009 (ip), vehicle: water): 110 % of control
- T/C (dose: 200.0 mg/kg/injection, schedule: Q01DX009 (ip), vehicle: water): 117 % of control

Reference: PubChem BioAssay AID330 (DTP/NCI, 2004)
